One test deals with HCC70 cells. Nature of the test: Inhibition of cell proliferation (CyQUANT Direct), HCC70. The class given is cell-based, human. The note with it: Homo sapiens, HCC70, 72-hour. How it is done:
(§1) HCC70 and MB453 cells are cell lines derived from human triple negative breast cancer COV318 and COV504 cells are cell lines derived from human ovarian cancer. Representative compounds of the invention were tested at different concentrations (from 4 μM to 126.4 pM; 0.5 log serial dilutions) for their ability to inhibit the proliferation of each of these cell lines. Known CDK inhibitors dinaciclib or N-((1S,3R)-3-((5-chloro-4-(1H-indol-3-yl) pyrimidin-2-yl)amino)cyclohexyl)-5-((E)-4-(dimethylamino)but-2-enamido)picolinamide and triptolide were used as positive controls. Cells were seeded at approximately 2,000 cells/well and grown in ATCC-formulated RPMI-1640 Medium (ATCC 30-2001)+10% FBS. The cells were cultured at 37° C. in a humidified chamber in the presence of 5% CO2. Proliferation assays were conducted over a 72-hour time period. CyQUANT® Direct Cell Proliferation Assay (Life Technologies, Chicago, Ill. USA) was used to assess the anti-proliferative effects of the compounds following manufacturer's directions and utilizing the reagents supplied with the CyQUANT® Direct Cell kit.

For a further test, the system named is COV318 cells. Nature of the test: Inhibition of cell proliferation (CyQUANT Direct), COV318. The class given is cell-based, human. The note with it: Homo sapiens, COV318, 72-hour. How it is done: as §1
The subject of a further test is COV504 cells. Nature of the test: Inhibition of cell proliferation (CyQUANT Direct), COV504. The following applies: Homo sapiens, COV504, 72-hour. The class given is cell-based, human. How it is done:
as §1

In another test the test system is MB453 cells. In words: Inhibition of cell proliferation (CyQUANT Direct), MB453. It is filed as cell-based, human. The following applies: Homo sapiens, MB453, 72-hour. How it is done:
as §1

The target of a further test is CDK2/Cyclin E1 complex (Homo sapiens, UniProt P24941). Nature of the test: CDK2 kinase inhibition assay (Caliper/LabChip EZ Reader).
In test [1] the target is CDK7/Cyclin H/MAT1 complex (Homo sapiens, UniProt P50613). Nature of the test: CDK7 kinase inhibition assay (Caliper/LabChip EZ Reader).
Sequence of CDK7/Cyclin H/MAT1 complex (P50613 whole entry): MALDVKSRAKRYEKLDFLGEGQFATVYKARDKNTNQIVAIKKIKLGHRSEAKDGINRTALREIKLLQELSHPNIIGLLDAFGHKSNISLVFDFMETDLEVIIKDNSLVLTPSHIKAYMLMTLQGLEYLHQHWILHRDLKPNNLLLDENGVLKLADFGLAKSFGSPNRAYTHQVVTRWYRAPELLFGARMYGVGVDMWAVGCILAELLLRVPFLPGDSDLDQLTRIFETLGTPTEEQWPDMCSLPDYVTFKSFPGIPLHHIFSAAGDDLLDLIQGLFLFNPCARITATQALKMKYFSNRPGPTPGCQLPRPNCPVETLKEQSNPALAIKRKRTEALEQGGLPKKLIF
Sequence of CDK7/Cyclin H/MAT1 complex (P51946 whole entry partner): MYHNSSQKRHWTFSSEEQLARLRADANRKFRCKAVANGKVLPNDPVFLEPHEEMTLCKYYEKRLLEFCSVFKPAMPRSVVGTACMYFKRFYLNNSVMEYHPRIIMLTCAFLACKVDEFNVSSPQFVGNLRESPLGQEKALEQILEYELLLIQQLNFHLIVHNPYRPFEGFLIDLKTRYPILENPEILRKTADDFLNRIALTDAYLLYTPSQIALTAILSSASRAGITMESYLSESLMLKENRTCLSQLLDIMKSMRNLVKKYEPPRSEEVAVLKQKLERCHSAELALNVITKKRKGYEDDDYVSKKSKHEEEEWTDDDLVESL
Sequence of CDK7/Cyclin H/MAT1 complex (P51948 whole entry partner): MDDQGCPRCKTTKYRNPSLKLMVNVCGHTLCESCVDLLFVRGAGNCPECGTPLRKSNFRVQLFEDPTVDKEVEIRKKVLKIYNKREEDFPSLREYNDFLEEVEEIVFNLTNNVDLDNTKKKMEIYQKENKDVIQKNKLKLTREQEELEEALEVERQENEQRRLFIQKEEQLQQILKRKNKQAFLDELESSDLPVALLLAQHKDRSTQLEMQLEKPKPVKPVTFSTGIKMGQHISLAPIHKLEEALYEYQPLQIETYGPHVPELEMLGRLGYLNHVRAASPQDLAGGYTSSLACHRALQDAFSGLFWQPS
Description: (§2) Compounds described herein were assayed for inhibition of CDK7, CDK9, CDK12, and CDK2 activity at Biortus Biosciences (Jiangyin, Jiangsu Province, P.R. of China) using kinase assays for each CDK developed with a Caliper/LabChip EZ Reader (Perkin Elmer, Waltham, Mass.).
(§3) Furthermore, the CDK9 inhibition assay used CDK9/Cyclin T1 complex (8 nM) and “5-FAM-CDK9tide” peptide substrate (2 μM, synthesized fluorophore-labeled peptide with the following sequence: 5-FAM-GSRTPMY-NH2 (SEQ ID NO:2) where 5-FAM is defined above and NH2 signifies a C-terminal amide) with 10 mM MgCl2 in the buffer composition listed above. The CDK12 inhibition assay used CDK12 (aa686-1082)/Cyclin K complex (50 nM) and “5-FAM-CDK9tide” (2 μM) as defined above, with 2 mM MgCl2 in the buffer composition above. Additionally, the CDK2 inhibition assay used CDK2/Cyclin E1 complex (0.5 nM) and “5-FAM-CDK7tide” (2 μM; defined above) with 2 mM MgCl2 in the buffer composition above.
(§4) The incubation period at 27° C. for each CDK inhibition assay was chosen such that the fraction of phosphorylated peptide product produced in each assay, relative to the total peptide concentration, was approximately 20% (±5%) for the uninhibited kinase (35 min. for CDK7, 35 min. for CDK2, 3 hr. for CDK12, 15 min. for CDK9).
The next test concerns the target CDK9/Cyclin T1 complex (Homo sapiens, UniProt P50750). Nature of the test: CDK9 kinase inhibition assay (Caliper/LabChip EZ Reader).
Test [2] addresses CDK12 (aa686-1082)/Cyclin K complex (Homo sapiens, UniProt Q9NYV4). In words: CDK12 kinase inhibition assay (Caliper/LabChip EZ Reader).

pIC50: −log10 of the molar value.

Sequence of CDK12 (aa686-1082)/Cyclin K complex (Q9NYV4 686-1082): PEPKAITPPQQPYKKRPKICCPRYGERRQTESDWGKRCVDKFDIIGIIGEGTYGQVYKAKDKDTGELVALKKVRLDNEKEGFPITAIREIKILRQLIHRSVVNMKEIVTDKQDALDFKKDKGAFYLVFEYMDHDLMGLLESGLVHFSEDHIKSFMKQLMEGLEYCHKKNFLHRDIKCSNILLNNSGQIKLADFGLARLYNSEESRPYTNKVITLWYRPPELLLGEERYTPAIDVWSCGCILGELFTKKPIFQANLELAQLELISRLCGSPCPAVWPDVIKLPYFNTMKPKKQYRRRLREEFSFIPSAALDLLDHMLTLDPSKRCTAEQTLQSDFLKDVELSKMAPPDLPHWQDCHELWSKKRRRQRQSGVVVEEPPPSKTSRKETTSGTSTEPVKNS
Sequence of CDK12 (aa686-1082)/Cyclin K complex (O75909 whole entry partner, the tested form may be a part): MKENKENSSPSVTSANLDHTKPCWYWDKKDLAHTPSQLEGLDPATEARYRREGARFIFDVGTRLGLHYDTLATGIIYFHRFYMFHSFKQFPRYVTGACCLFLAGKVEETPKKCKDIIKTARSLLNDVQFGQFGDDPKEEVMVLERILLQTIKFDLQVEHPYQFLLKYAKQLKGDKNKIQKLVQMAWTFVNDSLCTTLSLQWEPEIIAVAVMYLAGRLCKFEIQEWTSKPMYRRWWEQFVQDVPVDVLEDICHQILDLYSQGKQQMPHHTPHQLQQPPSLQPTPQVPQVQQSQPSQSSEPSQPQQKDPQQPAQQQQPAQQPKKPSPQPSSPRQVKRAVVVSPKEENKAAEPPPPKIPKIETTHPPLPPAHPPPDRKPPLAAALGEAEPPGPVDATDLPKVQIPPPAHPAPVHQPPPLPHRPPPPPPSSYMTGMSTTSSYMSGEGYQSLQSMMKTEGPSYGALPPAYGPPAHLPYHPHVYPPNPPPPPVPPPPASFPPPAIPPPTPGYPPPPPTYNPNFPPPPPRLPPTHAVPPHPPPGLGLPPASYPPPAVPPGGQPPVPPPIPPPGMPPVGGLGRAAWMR
Sequence of CDK9/Cyclin T1 complex (P50750 whole entry, the tested form may be a part): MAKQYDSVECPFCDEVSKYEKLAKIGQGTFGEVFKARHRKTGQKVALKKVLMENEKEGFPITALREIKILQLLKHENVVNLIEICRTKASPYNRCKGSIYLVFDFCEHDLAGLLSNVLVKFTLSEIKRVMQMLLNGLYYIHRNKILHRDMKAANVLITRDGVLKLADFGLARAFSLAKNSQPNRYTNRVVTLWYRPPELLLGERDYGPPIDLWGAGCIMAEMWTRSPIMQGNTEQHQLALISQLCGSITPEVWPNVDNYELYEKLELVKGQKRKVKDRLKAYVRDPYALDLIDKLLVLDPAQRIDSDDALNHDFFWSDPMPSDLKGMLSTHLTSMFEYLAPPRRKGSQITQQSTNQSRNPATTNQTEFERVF
Sequence of CDK9/Cyclin T1 complex (O60563 whole entry partner, the tested form may be a part): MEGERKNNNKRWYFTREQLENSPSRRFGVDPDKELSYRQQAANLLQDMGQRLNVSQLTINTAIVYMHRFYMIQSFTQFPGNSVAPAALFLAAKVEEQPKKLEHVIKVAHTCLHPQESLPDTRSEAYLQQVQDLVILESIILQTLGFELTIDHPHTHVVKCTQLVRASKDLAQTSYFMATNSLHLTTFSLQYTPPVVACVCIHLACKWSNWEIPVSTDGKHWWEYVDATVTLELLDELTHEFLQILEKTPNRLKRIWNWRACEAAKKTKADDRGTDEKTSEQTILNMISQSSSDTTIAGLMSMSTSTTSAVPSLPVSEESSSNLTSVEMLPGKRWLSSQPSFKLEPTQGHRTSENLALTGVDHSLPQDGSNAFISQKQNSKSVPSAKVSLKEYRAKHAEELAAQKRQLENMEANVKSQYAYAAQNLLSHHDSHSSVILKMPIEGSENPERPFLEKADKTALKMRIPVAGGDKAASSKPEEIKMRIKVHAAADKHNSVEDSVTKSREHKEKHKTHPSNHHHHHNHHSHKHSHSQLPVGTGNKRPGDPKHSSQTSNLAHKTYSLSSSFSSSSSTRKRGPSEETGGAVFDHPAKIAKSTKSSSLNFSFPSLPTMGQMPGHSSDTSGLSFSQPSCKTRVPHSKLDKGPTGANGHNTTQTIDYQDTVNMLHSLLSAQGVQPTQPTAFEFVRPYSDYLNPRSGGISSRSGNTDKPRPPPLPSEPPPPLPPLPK
Description for CDK9/Cyclin T1 complex: as §2, §3, §4

A word on the pIC50: it is the IC50 on a negative log10 scale, so that one unit is a factor of ten. Take `FC(F)(F)c1cnc(N[C@H]2CCCNC2)nc1-c1c[nH]c2cc(-c3ncco3)ccc12` [Compound 110, (S)-4-(6-(oxazol-2-yl)-1H-indol-3-yl)-N-(piperidin-3-yl)-5-(trifluoromethyl)pyrimidin-2-amine]: the pIC50 in the test on HCC70 cells was more than 7.00; with COV318 cells, 6.30 to 7.00; in the test on COV504 cells, more than 7.00; in the test on MB453 cells, more than 7.00; on CDK2/Cyclin E1 complex it was less than 6.30; in test [1] it was more than 7.52. For the same compound, the pIC50 (against CDK9/Cyclin T1 complex; in test [2]) was less than 6.30 each time.
With `FC(F)(F)c1cnc(N[C@H]2CCCNC2)nc1-c1c[nH]c2cc(-c3cnco3)ccc12` [Compound 111, (S)-4-(6-(oxazol-5-yl)-1H-indol-3-yl)-N-(piperidin-3-yl)-5-(trifluoromethyl)pyrimidin-2-amine], the pIC50 in the test on HCC70 cells was 6.30 to 7.00; in the test on COV318 cells, 6.30 to 7.00; in the test with COV504 cells it was more than 7.00; in the test with MB453 cells it was 6.30 to 7.00; at CDK2/Cyclin E1 complex it was less than 6.30; in test [1], more than 7.52. The pIC50 (on CDK9/Cyclin T1 complex; in test [2]) was less than 6.30 in each case.
`Cc1noc(C)c1-c1ccc2c(-c3nc(N[C@@H]4CNC[C@H](C(=O)N(C)C)C4)ncc3C(F)(F)F)c[nH]c2c1` [Compound 112, (3R,5S)-5-[[4-[6-(3,5-dimethylisoxazol-4-yl)-1H-indol-3-yl]-5-(trifluoromethyl)pyrimidin-2-yl]-amino]-N, N-dimethyl-piperidine-3-carboxamide]: the pIC50 in the test on HCC70 cells was 6.30 to 7.00; in the test with COV318 cells, less than 6.00; with COV504 cells, 6.30 to 7.00; with MB453 cells it was 6.30 to 7.00; on CDK2/Cyclin E1 complex, less than 6.30; in test [1], more than 7.52. Also, the pIC50 (against CDK9/Cyclin T1 complex; in test [2]) was less than 6.30 in each case.
For `CNC(=O)[C@H]1CNC[C@@H](Nc2ncc(C(F)(F)F)c(-c3c[nH]c4cc(-c5c(C)noc5C)ccc34)n2)C1` [Compound 113], the pIC50 in the test on HCC70 cells is 6.00 to 6.30; with COV318 cells, less than 6.00; in the test on COV504 cells it was 6.00 to 6.30; with MB453 cells, 6.30 to 7.00; on CDK2/Cyclin E1 complex, less than 6.30; in test [1] it was more than 7.52. Also, the pIC50 (against CDK9/Cyclin T1 complex; in test [2]) was less than 6.30 throughout.
`Cc1nocc1-c1ccc2c(-c3nc(N[C@H]4CCCNC4)ncc3C(F)(F)F)c[nH]c2c1` [Compound 114, (S)-4-(6-(3-methylisoxazol-4-yl)-1H-indol-3-yl)-N-(piperidin-3-yl)-5-(trifluoromethyl)pyrimidin-2-amine]: the pIC50 with HCC70 cells is more than 7.00; in the test with COV318 cells, more than 7.00; with COV504 cells it was more than 7.00; in the test on MB453 cells, more than 7.00; at CDK2/Cyclin E1 complex, less than 6.30; in test [1], more than 7.52. Besides, the pIC50 (against CDK9/Cyclin T1 complex; in test [2]) was less than 6.30 each time.
For the compound `Cc1noc(C)c1-c1ccc2c(-c3nc(N[C@@H]4CNCC(C)(C)C4)ncc3C(F)(F)F)c[nH]c2n1` [Compound 115], the pIC50 in the test with HCC70 cells was more than 7.00; with COV318 cells it was more than 7.00; in the test with COV504 cells, more than 7.00; in the test with MB453 cells, more than 7.00; on CDK2/Cyclin E1 complex, 6.30 to 7.00; in test [1], more than 7.52. Moreover, the pIC50 on CDK9/Cyclin T1 complex is less than 6.30; in test [2], 6.30 to 7.00.
Turning to `Cc1noc(C)c1-c1ccc2c(-c3nc(N[C@H]4CCC(C)(C)NC4)ncc3C(F)(F)F)c[nH]c2n1` [Compound 116], the pIC50 in the test with HCC70 cells was more than 7.00; with COV318 cells it was more than 7.00; in the test with COV504 cells, more than 7.00; in the test with MB453 cells it was more than 7.00; against CDK2/Cyclin E1 complex, less than 6.30; in test [1] it was more than 7.52. In addition, the pIC50 (against CDK9/Cyclin T1 complex; in test [2]) was less than 6.30 throughout.

For the origin of these results see US11311542B2, “Inhibitors of cyclin dependent kinase 7 (CDK7)” (Syros Pharmaceuticals, Inc., priority 2018, dated 2022).
